Experimental data taken from article PMC5769128, “Human UDP-Glucuronosyltransferase 2B4 and 2B7 Are Responsible for Naftopidil Glucuronidation in Vitro” (Frontiers in Pharmacology, 2018).

Legend:
UGT2B7 = target: T1, UGT2B7 (Homo sapiens, UniProt P16662); test: Inhibition of zidovudine glucuronidation in pooled HLM; type: in vitro ADME; design: tissue BD Gentest; host or cells: pooled human liver microsomes; settings: substrate zidovudine, enzyme HLM
T1 sequence (P16662 24-529): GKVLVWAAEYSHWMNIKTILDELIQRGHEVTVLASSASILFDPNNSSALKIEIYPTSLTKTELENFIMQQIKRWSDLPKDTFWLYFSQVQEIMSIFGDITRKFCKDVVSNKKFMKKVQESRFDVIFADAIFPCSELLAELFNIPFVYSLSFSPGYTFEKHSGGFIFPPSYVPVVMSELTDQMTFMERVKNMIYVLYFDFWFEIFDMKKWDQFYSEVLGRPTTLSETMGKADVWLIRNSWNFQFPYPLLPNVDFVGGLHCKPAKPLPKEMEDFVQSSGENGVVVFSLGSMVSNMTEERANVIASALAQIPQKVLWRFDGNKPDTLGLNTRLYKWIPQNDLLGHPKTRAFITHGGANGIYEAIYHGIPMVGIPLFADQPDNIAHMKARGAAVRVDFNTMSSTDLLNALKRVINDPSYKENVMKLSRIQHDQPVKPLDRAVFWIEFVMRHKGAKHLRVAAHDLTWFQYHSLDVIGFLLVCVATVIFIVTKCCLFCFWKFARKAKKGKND

recombinant human UGT1A6 = target: T2, recombinant human UGT1A6 (Homo sapiens, UniProt P19224); test: UGT reaction screening of NAF enantiomers, UGT1A6; settings: 10 μM substrate, 45 min
T2 sequence (P19224 27-532): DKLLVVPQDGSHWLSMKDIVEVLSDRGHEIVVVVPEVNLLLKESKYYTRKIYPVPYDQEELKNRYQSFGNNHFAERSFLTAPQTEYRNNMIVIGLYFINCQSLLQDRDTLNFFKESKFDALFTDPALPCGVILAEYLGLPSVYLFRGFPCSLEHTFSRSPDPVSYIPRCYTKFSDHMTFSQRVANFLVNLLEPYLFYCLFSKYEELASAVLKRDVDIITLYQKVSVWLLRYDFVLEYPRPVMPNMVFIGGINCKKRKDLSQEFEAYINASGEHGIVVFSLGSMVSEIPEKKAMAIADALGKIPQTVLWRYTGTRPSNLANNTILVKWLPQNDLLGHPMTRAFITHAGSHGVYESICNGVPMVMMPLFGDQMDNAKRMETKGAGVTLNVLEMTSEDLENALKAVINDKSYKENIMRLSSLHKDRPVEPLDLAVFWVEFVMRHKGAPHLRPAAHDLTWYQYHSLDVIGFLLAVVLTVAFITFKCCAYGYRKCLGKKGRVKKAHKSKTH

recombinant human UGT2B4 = target: T3, recombinant human UGT2B4 (Homo sapiens, UniProt P06133); test: Kinetics of NAF enantiomer glucuronidation by recombinant UGT2B4; type: in vitro ADME
T3 construct: purchased BD Gentest
T3 sequence (P06133 24-528): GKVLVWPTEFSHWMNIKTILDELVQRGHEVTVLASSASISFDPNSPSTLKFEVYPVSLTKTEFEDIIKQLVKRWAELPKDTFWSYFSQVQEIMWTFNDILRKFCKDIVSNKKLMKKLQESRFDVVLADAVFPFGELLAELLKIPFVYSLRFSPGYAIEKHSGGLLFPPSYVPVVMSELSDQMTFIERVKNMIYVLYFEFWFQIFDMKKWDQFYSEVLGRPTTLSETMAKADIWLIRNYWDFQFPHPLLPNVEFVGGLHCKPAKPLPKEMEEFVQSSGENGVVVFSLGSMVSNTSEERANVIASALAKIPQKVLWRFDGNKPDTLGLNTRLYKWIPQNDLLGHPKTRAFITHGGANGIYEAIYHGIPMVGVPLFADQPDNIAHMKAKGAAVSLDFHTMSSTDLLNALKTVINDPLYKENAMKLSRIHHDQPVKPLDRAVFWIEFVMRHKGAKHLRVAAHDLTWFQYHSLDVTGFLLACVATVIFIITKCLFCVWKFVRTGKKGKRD
Experimental: All glucuronidation assays were conducted in an incubation volume of 200 μL. Incubations were performed at 37°C in 50 mM Tris–HCl buffer (pH 7.5) with 10 mM magnesium chloride, 1 mg protein/mL of enzyme (microsomes and recombinant human UGTs), alamethicin (100 μg of alamethicin/mg microsomal protein), and NAF enantiomers (2.5–80 μM). The reaction was initiated by the addition of UDPGA (5 mM) and incubated at 37°C in a shaking water bath for 45 min. The reaction was terminated by the addition of 200 μL of ice-cold acetonitrile containing the IS (1 μM) and then centrifuged at 5000 ×g for 10 min at 4°C. The supernatant fraction was injected into the RRLC-MS/MS apparatus. Protein concentration (0.5–2 mg/mL) and incubation time (15–180 min) were optimized in preliminary studies to be within initial linear rate conditions.
Kinetic parameters were assessed in the HLM, RLM, HKM, RKM, and recombinant human UGTs (UGT2B4, 2B7, and 1A9).

Compound	Inhibition type (UGT2B7)	Ki (UGT2B7)	Glucuronide formation by UGT1A6 (recombinant human UGT1A6)	Kinetics type (recombinant human UGT2B4)
COc1ccccc1N1CCN(C[C@@H](O)COc2cccc3ccccc23)CC1 [R(+)-NAF]	Competitive	64.9 ± 7.8 µM	No R(+)-NAF-G was detected	substrate inhibition model
COc1ccccc1N1CCN(C[C@H](O)COc2cccc3ccccc23)CC1 [S(-)-NAF]	Competitive	35.7 ± 4.1 µM	no activity	substrate inhibition model
